Experiments:
BMPR2 (human) = BMPR2 (human) (UniProt Q13873); experiment: KINOMEscan competition binding; details: compound 10.0 µM
ANKK1 (human) = ANKK1 (human) (UniProt Q8NFD2); experiment: KINOMEscan competition binding; details: compound 10.0 µM
MAP4K1 (human) = MAP4K1 (human) (UniProt Q92918); experiment: KINOMEscan competition binding; details: compound 10.0 µM
MAPK10 (human) = MAPK10 (human) (UniProt P53779); experiment: KINOMEscan competition binding; details: compound 10.0 µM
[1] = test system: ABL1 (human), P00519 [T315I]; experiment: KINOMEscan competition binding; details: compound 10.0 µM
CDK14 (human) = CDK14 (human) (UniProt O94921); experiment: KINOMEscan competition binding; details: compound 10.0 µM
MKNK1 (human) = MKNK1 (human) (UniProt Q9BUB5); experiment: KINOMEscan competition binding; details: compound 10.0 µM
PIK3C2B (human) = PIK3C2B (human) (UniProt O00750); experiment: KINOMEscan competition binding; details: compound 10.0 µM
PIK3CG (human) = PIK3CG (human) (UniProt P48736); experiment: KINOMEscan competition binding; details: compound 10.0 µM
ALK (human) = ALK (human) (UniProt Q9UM73); experiment: KINOMEscan competition binding; details: compound 10.0 µM
MAP2K2 (human) = MAP2K2 (human) (UniProt P36507); experiment: KINOMEscan competition binding; details: compound 10.0 µM
LRRK2 (human) = LRRK2 (human) (UniProt Q5S007); experiment: KINOMEscan competition binding; details: compound 10.0 µM
DMPK (human) = DMPK (human) (UniProt Q09013); experiment: KINOMEscan competition binding; details: compound 10.0 µM
SYK (human) = SYK (human) (UniProt P43405); experiment: KINOMEscan competition binding; details: compound 10.0 µM
NUAK2 (human) = NUAK2 (human) (UniProt Q9H093); experiment: KINOMEscan competition binding; details: compound 10.0 µM
BTK (human) = BTK (human) (UniProt Q06187); experiment: KINOMEscan competition binding; details: compound 10.0 µM
SGK1 (human) = SGK1 (human) (UniProt O00141); experiment: KINOMEscan competition binding; details: compound 10.0 µM
MAPK3 (human) = MAPK3 (human) (UniProt P27361); experiment: KINOMEscan competition binding; details: compound 10.0 µM
PIM2 (human) = PIM2 (human) (UniProt Q9P1W9); experiment: KINOMEscan competition binding; details: compound 10.0 µM
SRPK3 (human) = SRPK3 (human) (UniProt Q9UPE1); experiment: KINOMEscan competition binding; details: compound 10.0 µM
PIM1 (human) = PIM1 (human) (UniProt P11309); experiment: KINOMEscan competition binding; details: compound 10.0 µM
PLK3 (human) = PLK3 (human) (UniProt Q9H4B4); experiment: KINOMEscan competition binding; details: compound 10.0 µM
NEK6 (human) = NEK6 (human) (UniProt Q9HC98); experiment: KINOMEscan competition binding; details: compound 10.0 µM
CAMK2A (human) = CAMK2A (human) (UniProt Q9UQM7); experiment: KINOMEscan competition binding; details: compound 10.0 µM
MAP3K14 (human) = MAP3K14 (human) (UniProt Q99558); experiment: KINOMEscan competition binding; details: compound 10.0 µM
STK11 (human) = STK11 (human) (UniProt Q15831); experiment: KINOMEscan competition binding; details: compound 10.0 µM
ERBB2 (human) = ERBB2 (human) (UniProt P04626); experiment: KINOMEscan competition binding; details: compound 10.0 µM
MAP3K13 (human) = MAP3K13 (human) (UniProt O43283); experiment: KINOMEscan competition binding; details: compound 10.0 µM
ERN1 (human) = ERN1 (human) (UniProt O75460); experiment: KINOMEscan competition binding; details: compound 10.0 µM
CDK2 (human) = CDK2 (human) (UniProt P24941); experiment: KINOMEscan competition binding; details: compound 10.0 µM
CSNK1A1 (human) = CSNK1A1 (human) (UniProt P48729); experiment: KINOMEscan competition binding; details: compound 10.0 µM
MKNK2 (human) = MKNK2 (human) (UniProt Q9HBH9); experiment: KINOMEscan competition binding; details: compound 10.0 µM
EPHA2 (human) = EPHA2 (human) (UniProt P29317); experiment: KINOMEscan competition binding; details: compound 10.0 µM
CLK3 (human) = CLK3 (human) (UniProt P49761); experiment: KINOMEscan competition binding; details: compound 10.0 µM
PLK4 (human) = PLK4 (human) (UniProt O00444); experiment: KINOMEscan competition binding; details: compound 10.0 µM
RPS6KB1 (human) = RPS6KB1 (human) (UniProt P23443); experiment: KINOMEscan competition binding; details: compound 10.0 µM
RAF1 (human) = RAF1 (human) (UniProt P04049); experiment: KINOMEscan competition binding; details: compound 10.0 µM
BRSK1 (human) = BRSK1 (human) (UniProt Q8TDC3); experiment: KINOMEscan competition binding; details: compound 10.0 µM
PRKCE (human) = PRKCE (human) (UniProt Q02156); experiment: KINOMEscan competition binding; details: compound 10.0 µM
RPS6KA3 KD1 (human) = RPS6KA3 KD1 (human) (UniProt P51812); experiment: KINOMEscan competition binding; details: compound 10.0 µM
MAP3K12 (human) = MAP3K12 (human) (UniProt Q12852)
Sequence of MAP3K12 (human) (Q12852 whole entry, looked up): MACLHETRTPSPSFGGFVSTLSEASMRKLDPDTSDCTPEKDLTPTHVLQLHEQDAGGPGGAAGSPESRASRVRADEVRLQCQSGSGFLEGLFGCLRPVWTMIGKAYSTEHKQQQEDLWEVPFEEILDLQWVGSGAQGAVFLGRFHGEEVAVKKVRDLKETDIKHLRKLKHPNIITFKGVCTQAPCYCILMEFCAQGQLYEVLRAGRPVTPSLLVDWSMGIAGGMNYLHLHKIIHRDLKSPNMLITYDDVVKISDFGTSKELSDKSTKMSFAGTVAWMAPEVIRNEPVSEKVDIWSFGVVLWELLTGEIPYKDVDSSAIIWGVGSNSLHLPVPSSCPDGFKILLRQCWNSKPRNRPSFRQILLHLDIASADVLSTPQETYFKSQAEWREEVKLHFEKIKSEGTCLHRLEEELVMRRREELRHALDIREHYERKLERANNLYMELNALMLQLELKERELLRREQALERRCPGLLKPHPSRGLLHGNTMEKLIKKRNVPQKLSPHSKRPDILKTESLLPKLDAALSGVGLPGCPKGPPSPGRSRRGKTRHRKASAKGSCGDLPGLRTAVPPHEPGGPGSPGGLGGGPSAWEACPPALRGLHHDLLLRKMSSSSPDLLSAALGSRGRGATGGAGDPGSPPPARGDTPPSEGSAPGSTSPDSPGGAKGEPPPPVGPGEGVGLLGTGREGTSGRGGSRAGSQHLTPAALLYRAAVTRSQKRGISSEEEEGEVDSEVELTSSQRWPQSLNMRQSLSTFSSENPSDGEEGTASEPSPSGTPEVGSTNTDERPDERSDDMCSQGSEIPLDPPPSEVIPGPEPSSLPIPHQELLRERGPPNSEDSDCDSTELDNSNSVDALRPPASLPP

Sequence of PIM2 (human) (Q9P1W9 whole entry, looked up): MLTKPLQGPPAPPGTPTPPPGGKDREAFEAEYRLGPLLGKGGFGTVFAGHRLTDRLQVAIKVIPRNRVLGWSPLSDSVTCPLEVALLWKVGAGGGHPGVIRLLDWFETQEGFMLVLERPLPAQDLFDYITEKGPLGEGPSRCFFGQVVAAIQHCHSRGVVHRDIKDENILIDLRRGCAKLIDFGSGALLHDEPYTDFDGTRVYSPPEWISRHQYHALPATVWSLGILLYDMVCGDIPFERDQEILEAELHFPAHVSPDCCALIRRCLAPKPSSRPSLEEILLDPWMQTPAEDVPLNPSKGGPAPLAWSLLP
Sequence of ANKK1 (human) (Q8NFD2 whole entry, looked up): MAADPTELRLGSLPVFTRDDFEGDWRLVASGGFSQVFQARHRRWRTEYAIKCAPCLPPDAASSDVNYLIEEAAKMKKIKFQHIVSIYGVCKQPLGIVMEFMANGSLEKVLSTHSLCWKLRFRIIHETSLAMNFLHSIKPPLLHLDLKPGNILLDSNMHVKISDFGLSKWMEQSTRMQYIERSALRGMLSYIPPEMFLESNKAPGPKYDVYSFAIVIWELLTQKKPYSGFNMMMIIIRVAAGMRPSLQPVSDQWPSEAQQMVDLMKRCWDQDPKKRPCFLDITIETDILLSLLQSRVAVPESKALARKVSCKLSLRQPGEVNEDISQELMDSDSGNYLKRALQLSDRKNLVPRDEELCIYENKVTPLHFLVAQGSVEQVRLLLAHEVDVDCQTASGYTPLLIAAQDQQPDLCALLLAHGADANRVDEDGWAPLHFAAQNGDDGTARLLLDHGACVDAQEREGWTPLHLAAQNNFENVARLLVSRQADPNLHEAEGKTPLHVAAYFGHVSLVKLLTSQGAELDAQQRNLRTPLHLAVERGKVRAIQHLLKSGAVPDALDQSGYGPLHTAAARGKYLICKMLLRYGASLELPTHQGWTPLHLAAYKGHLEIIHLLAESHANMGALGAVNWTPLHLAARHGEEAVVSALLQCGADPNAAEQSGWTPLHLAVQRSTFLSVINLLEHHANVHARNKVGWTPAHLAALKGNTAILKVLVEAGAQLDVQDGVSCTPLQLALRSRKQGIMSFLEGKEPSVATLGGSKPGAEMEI
Sequence of NUAK2 (human) (Q9H093 whole entry, looked up): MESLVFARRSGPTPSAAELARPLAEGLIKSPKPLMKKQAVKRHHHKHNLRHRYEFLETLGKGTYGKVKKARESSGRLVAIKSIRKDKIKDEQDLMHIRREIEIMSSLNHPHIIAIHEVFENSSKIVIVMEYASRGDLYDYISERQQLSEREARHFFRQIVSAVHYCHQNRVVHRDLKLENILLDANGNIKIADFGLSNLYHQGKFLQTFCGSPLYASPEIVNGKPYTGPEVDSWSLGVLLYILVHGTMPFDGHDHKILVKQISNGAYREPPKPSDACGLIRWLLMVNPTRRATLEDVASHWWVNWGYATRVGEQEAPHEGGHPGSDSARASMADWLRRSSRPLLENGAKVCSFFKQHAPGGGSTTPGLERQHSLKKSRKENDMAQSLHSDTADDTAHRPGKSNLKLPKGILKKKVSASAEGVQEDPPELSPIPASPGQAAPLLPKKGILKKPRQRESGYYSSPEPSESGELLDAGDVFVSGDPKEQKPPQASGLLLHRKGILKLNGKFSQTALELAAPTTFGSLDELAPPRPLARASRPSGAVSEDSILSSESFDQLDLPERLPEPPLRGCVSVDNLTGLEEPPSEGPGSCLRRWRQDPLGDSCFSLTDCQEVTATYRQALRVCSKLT
Sequence of MKNK2 (human) (Q9HBH9 whole entry, looked up): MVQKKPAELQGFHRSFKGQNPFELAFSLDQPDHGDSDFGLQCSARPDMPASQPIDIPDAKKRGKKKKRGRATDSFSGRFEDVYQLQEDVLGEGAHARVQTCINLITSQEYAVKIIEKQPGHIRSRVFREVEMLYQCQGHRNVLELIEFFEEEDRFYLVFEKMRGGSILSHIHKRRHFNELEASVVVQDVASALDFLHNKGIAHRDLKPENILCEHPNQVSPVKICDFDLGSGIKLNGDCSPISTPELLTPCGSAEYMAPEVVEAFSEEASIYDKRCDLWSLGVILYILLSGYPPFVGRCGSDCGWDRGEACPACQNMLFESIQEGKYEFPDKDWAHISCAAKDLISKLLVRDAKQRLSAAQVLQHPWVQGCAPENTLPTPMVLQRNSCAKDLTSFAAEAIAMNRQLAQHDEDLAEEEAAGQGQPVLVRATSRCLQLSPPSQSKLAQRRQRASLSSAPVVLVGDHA
Sequence of BTK (human) (Q06187 whole entry, looked up): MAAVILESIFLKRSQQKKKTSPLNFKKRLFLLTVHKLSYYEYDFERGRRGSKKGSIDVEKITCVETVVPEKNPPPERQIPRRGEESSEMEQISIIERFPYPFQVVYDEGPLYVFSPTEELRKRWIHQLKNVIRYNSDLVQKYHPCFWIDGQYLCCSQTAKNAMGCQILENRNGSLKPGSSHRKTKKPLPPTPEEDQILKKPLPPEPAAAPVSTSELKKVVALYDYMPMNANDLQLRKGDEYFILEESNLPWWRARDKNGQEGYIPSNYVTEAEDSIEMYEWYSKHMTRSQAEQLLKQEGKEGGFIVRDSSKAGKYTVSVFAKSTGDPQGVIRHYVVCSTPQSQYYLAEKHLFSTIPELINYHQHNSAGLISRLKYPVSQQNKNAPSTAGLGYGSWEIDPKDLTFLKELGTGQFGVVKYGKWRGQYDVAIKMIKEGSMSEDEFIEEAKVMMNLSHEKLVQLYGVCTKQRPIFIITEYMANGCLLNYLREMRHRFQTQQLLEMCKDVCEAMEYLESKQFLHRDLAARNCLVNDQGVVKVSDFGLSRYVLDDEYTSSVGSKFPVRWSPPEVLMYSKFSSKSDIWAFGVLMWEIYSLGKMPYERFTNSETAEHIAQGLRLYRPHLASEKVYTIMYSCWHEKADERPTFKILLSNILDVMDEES
Sequence of NEK6 (human) (Q9HC98 whole entry, looked up): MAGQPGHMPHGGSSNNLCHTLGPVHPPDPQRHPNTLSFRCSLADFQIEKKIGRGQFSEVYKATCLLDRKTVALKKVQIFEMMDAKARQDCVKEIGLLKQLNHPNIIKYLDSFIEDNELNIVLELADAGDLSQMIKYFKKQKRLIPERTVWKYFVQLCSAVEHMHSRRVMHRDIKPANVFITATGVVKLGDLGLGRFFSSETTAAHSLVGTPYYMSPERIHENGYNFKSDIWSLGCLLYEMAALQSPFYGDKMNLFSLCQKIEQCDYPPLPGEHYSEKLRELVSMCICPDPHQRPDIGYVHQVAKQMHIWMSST
Sequence of PIM1 (human) (P11309 whole entry, looked up): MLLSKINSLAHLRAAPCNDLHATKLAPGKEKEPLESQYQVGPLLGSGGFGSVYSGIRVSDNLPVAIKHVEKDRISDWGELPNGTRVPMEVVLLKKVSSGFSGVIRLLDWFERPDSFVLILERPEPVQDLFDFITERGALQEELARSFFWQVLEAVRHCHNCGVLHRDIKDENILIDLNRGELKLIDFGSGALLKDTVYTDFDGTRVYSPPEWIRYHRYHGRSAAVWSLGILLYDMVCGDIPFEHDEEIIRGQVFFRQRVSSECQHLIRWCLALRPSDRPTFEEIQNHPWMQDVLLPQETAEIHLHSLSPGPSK
Sequence of MAPK10 (human) (P53779 whole entry, looked up): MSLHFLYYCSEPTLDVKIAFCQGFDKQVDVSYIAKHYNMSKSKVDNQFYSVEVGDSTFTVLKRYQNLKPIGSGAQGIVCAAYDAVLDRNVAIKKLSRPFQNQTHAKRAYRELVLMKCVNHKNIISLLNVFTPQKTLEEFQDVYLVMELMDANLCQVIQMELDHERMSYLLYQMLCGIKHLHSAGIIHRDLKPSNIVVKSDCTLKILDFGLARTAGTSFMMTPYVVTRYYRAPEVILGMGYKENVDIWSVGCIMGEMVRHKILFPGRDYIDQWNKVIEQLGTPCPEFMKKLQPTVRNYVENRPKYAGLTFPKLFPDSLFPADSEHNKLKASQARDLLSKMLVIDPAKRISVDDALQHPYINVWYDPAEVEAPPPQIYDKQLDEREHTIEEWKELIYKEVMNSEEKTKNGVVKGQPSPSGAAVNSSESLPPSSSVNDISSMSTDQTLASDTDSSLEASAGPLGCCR

kinase still bound, per cent of control (BMPR2 (human)): 81%
kinase still bound, per cent of control (ANKK1 (human)): 89%
kinase still bound, per cent of control (MAP4K1 (human)): 61%
kinase still bound, per cent of control (MAPK10 (human)): 74%
kinase still bound, per cent of control [1]: 46%
kinase still bound, per cent of control (CDK14 (human)): 23%
kinase still bound, per cent of control (MKNK1 (human)): 5.4%
kinase still bound, per cent of control (PIK3C2B (human)): 80%
kinase still bound, per cent of control (PIK3CG (human)): 98%
kinase still bound, per cent of control (ALK (human)): 57%
kinase still bound, per cent of control (MAP2K2 (human)): 60%
kinase still bound, per cent of control (LRRK2 (human)): 83%
kinase still bound, per cent of control (DMPK (human)): 100%
kinase still bound, per cent of control (SYK (human)): 56%
kinase still bound, per cent of control (NUAK2 (human)): 73%
kinase still bound, per cent of control (BTK (human)): 96%
kinase still bound, per cent of control (SGK1 (human)): 88%
kinase still bound, per cent of control (MAPK3 (human)): 100%
kinase still bound, per cent of control (PIM2 (human)): 100%
kinase still bound, per cent of control (SRPK3 (human)): 100%
kinase still bound, per cent of control (PIM1 (human)): 90%
kinase still bound, per cent of control (PLK3 (human)): 16%
kinase still bound, per cent of control (NEK6 (human)): 100%
kinase still bound, per cent of control (CAMK2A (human)): 90%
kinase still bound, per cent of control (MAP3K14 (human)): 97%
kinase still bound, per cent of control (STK11 (human)): 97%
kinase still bound, per cent of control (ERBB2 (human)): 100%
kinase still bound, per cent of control (MAP3K13 (human)): 92%
kinase still bound, per cent of control (ERN1 (human)): 100%
kinase still bound, per cent of control (CDK2 (human)): 64%
kinase still bound, per cent of control (CSNK1A1 (human)): 100%
kinase still bound, per cent of control (MKNK2 (human)): 0.05%
kinase still bound, per cent of control (EPHA2 (human)): 37%
kinase still bound, per cent of control (CLK3 (human)): 65%
kinase still bound, per cent of control (PLK4 (human)): 52%
kinase still bound, per cent of control (RPS6KB1 (human)): 69%
kinase still bound, per cent of control (RAF1 (human)): 1%
kinase still bound, per cent of control (BRSK1 (human)): 86%
kinase still bound, per cent of control (PRKCE (human)): 86%
kinase still bound, per cent of control (RPS6KA3 KD1 (human)): 100%
IC50 (MAP3K12 (human)): > 10 µM
Compound: O=C(Nc1ccc(Oc2ncnc3[nH]ncc23)cc1)Nc1ccc(Cl)c(C(F)(F)F)c1
